{"source": "patent US20170318812A1", "about": "“Plant and Crop Growth Regulating/Biostimulant Formulations and Methods of Use” (Arysta Lifescience North America, LLC, priority 2014, published 2017)", "key": {"[1]": {"system": "SORVU Sorghum bicolor (Grain sorghum)", "assay": "Ipfencarbazone biostimulant effect, early post emergence foliar application, greenhouse pots, plant height: sorghum", "assay_type": "in vivo", "conditions": "for Plant HEIGHT, Mean / Plant HEIGHT, single plots: Grain sorghum DKB 590, 15 DA-A; for HEIGHT, percent of untreated check (APoC) / HEIGHT, treatment mean / HEIGHT, single plots (replicates): SORVU DKB 590", "excerpt": "(§1) The original objective of this Example was to evaluate the herbicidal effect of ipfencarbazone when applied as a post emergent treatment to a range of selected crops and weeds. Unexpectedly, crop plant growth stimulation was observed. The actual species of weeds and crops are listed in the summary data tabulated below and in FIGS. 1-13. By convention each plant species has a Bayer code (5-letter name) with the scientific name for the plant referenced in FIGS. 1-13. In each Figure, each tray contains the same configuration of weeds and/or crops. In each Figure there is one replication of each treatment (six treatments in total). The top three photographs in each Figure show the Bayer Codes and bottom three photographs are aligned with the top three facilitating viewing of the same plant species. Throughout the Examples various abbreviations as conventional shorthand notation and will be appreciated by those skilled in the art. Some exemplary abbreviations include, “CV”=Co-efficient of Variation,” “LSD”=Least Significant Difference” (G/L (gram per L) AND GA/L (gram of active ingredient per L); “SC”=suspension concentrate formulation. The diluent in all treatments was water. By convention factors that are identical in all treatments (e.g. diluent and surfactant) are not listed in each treatment.\n(§2) Methods: The indicated size pots (see Tables below) are filled with a specific soil, the soil properties being indicated below. The referenced crops and weeds are planted by hand in each pot. […] The experiments include six treatments each replicated three times on each crop/weed species. At a specific time after emergence each crop and weed species was treated with ipfencarbazone plus a non-ionic surfactant (NIS). In the present Example, the surfactant employed was ENERGIC™ (non-ionic surfactant). The application timing is indicated in each of the Tables (1 or 2 leaf stage) below. Ipfencarbazone plus surfactant was diluted in water and applied at a rate equivalent to about 250 L/ha. Ipfencarbazone was applied using a track sprayer. After treatment, the pots were randomized in a greenhouse. At each assessment (indicated by “days after treatment” or DAT) the height of each plant was measured. The letters next to each mean indicate the level of statistical significance.\n(§3) Replications: 3, Untreated treatments: 1, Design: Randomized Complete Block (RCB), Treatment units: Treated ‘Plot’ experimental unit size, Dry Form. Unit: %, Treated ‘Plot’ experimental unit size Width: 1 meter, Treated ‘Plot’ experimental unit size Length: 1.4 meters, Application volume: 250 L/ha, Mix size: 0.15 liters, […]"}, "ZEAMX Zea mays (Corn)": {"system": "ZEAMX Zea mays (Corn)", "assay": "Ipfencarbazone biostimulant effect, early post emergence foliar application, greenhouse pots, plant height: corn", "assay_type": "in vivo", "conditions": "ZEAMX AG7098PRO2", "excerpt": "as §1, §2, §3"}, "[2]": {"conditions": "62.5 g ai/ha + Energic NIS 0.2 % v/v"}, "[3]": {"conditions": "125 g ai/ha + Energic NIS 0.2 % v/v"}, "[4]": {"conditions": "250 g ai/ha + Energic NIS 0.2 % v/v"}, "[5]": {"conditions": "500 g ai/ha + Energic NIS 0.2 % v/v"}, "[6]": {"conditions": "62.5 g ai/ha, 28 DA-A, plots 102, 205, 302"}, "[7]": {"conditions": "125 g ai/ha, 28 DA-A, plots 103, 206, 305"}}, "note": "Several values for one entry are separate records, joined by “and”; a condition that tells them apart may be missing. Equal entries are not always repeated."}
{"compound": "CC(C)N(C(=O)n1cnn(-c2ccc(Cl)cc2Cl)c1=O)c1ccc(F)cc1F", "note": "[ARY-0572-001, ipfencarbazone]", "values": [{"measurement": "Plant HEIGHT, Mean", "setting": "[1]; [2]", "result": 59.9, "unit": "cm"}, {"measurement": "Plant HEIGHT, single plots", "setting": "[1]; [2]", "result": "55.3 cm and 68.0 cm and 56.3 cm"}, {"measurement": "Plant HEIGHT, Mean", "setting": "[1]; [3]", "result": 59.3, "unit": "cm"}, {"measurement": "Plant HEIGHT, single plots", "setting": "[1]; [3]", "result": "68.7 cm and 55.0 cm and 54.3 cm"}, {"measurement": "Plant HEIGHT, Mean", "setting": "[1]; [4]", "result": 61.3, "unit": "cm"}, {"measurement": "Plant HEIGHT, single plots", "setting": "[1]; [4]", "result": "58.0 cm and 65.0 cm and 61.0 cm"}, {"measurement": "Plant HEIGHT, Mean", "setting": "[1]; [5]", "result": 60.4, "unit": "cm"}, {"measurement": "Plant HEIGHT, single plots", "setting": "[1]; [5]", "result": "56.0 cm and 66.3 cm and 58.8 cm"}, {"measurement": "Plant HEIGHT, Mean", "setting": "[1]; 1000 g ai/ha + Energic NIS 0.2 % v/v", "result": 22.7, "unit": "cm"}, {"measurement": "HEIGHT, percent of untreated check (APoC)", "setting": "[1]; 62.5 g ai/ha, 15 DA-A", "result": "(246.1%)"}, {"measurement": "HEIGHT, treatment mean", "setting": "[1]; 62.5 g ai/ha, 15 DA-A", "result": 59.9, "unit": "a cm"}, {"measurement": "HEIGHT, percent of untreated check (APoC)", "setting": "[1]; 62.5 g ai/ha, 28 DA-A", "result": "(296.5%)"}, {"measurement": "HEIGHT, treatment mean", "setting": "[1]; 62.5 g ai/ha, 28 DA-A", "result": "85.0 a cm and 85.0 cm"}, {"measurement": "HEIGHT, single plots (replicates)", "setting": "[1]; [6]", "result": "73.0 cm and 110.7 cm and 71.3 cm"}, {"measurement": "HEIGHT, percent of untreated check (APoC)", "setting": "[1]; 125 g ai/ha, 15 DA-A", "result": "(243.8%)"}, {"measurement": "HEIGHT, treatment mean", "setting": "[1]; 125 g ai/ha, 15 DA-A", "result": 59.3, "unit": "a cm"}, {"measurement": "HEIGHT, percent of untreated check (APoC)", "setting": "[1]; 125 g ai/ha, 28 DA-A", "result": "(277.1%)"}, {"measurement": "HEIGHT, treatment mean", "setting": "[1]; 125 g ai/ha, 28 DA-A", "result": "79.4 a cm and 79.4 cm"}, {"measurement": "HEIGHT, single plots (replicates)", "setting": "[1]; [7]", "result": "102.7 cm and 71.3 cm and 64.3 cm"}, {"measurement": "HEIGHT, percent of untreated check (APoC)", "setting": "[1]; 250 g ai/ha, 15 DA-A", "result": "(252.1%)"}, {"measurement": "HEIGHT, treatment mean", "setting": "[1]; 250 g ai/ha, 15 DA-A", "result": 61.3, "unit": "a cm"}, {"measurement": "HEIGHT, percent of untreated check (APoC)", "setting": "[1]; 250 g ai/ha, 28 DA-A", "result": "(355.0%)"}, {"measurement": "HEIGHT, treatment mean", "setting": "[1]; 250 g ai/ha, 28 DA-A", "result": "101.8 a cm and 101.8 cm"}, {"measurement": "HEIGHT, single plots (replicates)", "setting": "[1]; 250 g ai/ha, 28 DA-A, plots 104, 201, 306", "result": "101.3 cm and 104.0 cm and 100.0 cm"}, {"measurement": "HEIGHT, percent of untreated check (APoC)", "setting": "[1]; 500 g ai/ha, 15 DA-A", "result": "(248.2%)"}, {"measurement": "HEIGHT, treatment mean", "setting": "[1]; 500 g ai/ha, 15 DA-A", "result": 60.4, "unit": "a cm"}, {"measurement": "HEIGHT, percent of untreated check (APoC)", "setting": "[1]; 500 g ai/ha, 28 DA-A", "result": "(266.7%)"}, {"measurement": "HEIGHT, treatment mean", "setting": "[1]; 500 g ai/ha, 28 DA-A", "result": "76.4 a cm and 76.4 cm"}, {"measurement": "HEIGHT, single plots (replicates)", "setting": "[1]; 500 g ai/ha, 28 DA-A, plots 105, 202, 301", "result": "44.7 cm and 89.7 cm and 95.0 cm"}, {"measurement": "HEIGHT, percent of untreated check (APoC)", "setting": "[1]; 1000 g ai/ha, 15 DA-A", "result": "(93.2%)"}, {"measurement": "HEIGHT, treatment mean", "setting": "[1]; 1000 g ai/ha, 15 DA-A", "result": 22.7, "unit": "b cm"}, {"measurement": "HEIGHT, percent of untreated check (APoC)", "setting": "[1]; 1000 g ai/ha, 28 DA-A", "result": "(123.6%)"}, {"measurement": "HEIGHT, treatment mean", "setting": "[1]; 1000 g ai/ha, 28 DA-A", "result": "35.4 b cm and 35.4 cm"}, {"measurement": "HEIGHT, single plots (replicates)", "setting": "[1]; 1000 g ai/ha, 28 DA-A, plots 106, 203, 304", "result": "75.3 cm and 9.3 cm and 21.7 cm"}, {"measurement": "HEIGHT, percent of untreated check (APoC)", "setting": "ZEAMX Zea mays (Corn); 62.5 g ai/ha, 15 DA-A", "result": "(146.7%)"}, {"measurement": "HEIGHT, treatment mean", "setting": "ZEAMX Zea mays (Corn); 62.5 g ai/ha, 15 DA-A", "result": "56.1 a cm and 56.1 cm"}, {"measurement": "HEIGHT, single plots (replicates)", "setting": "ZEAMX Zea mays (Corn); 62.5 g ai/ha, 15 DA-A, plots 102, 205, 302", "result": "52.3 cm and 64.8 cm and 51.0 cm"}, {"measurement": "HEIGHT, percent of untreated check (APoC)", "setting": "ZEAMX Zea mays (Corn); 62.5 g ai/ha, 28 DA-A", "result": "(175.8%)"}, {"measurement": "HEIGHT, treatment mean", "setting": "ZEAMX Zea mays (Corn); 62.5 g ai/ha, 28 DA-A", "result": "89.4 a cm and 89.4 cm"}, {"measurement": "HEIGHT, single plots (replicates)", "setting": "ZEAMX Zea mays (Corn); [6]", "result": "71.3 cm and 106.7 cm and 90.3 cm"}, {"measurement": "HEIGHT, percent of untreated check (APoC)", "setting": "ZEAMX Zea mays (Corn); 125 g ai/ha, 15 DA-A", "result": "(156.4%)"}, {"measurement": "HEIGHT, treatment mean", "setting": "ZEAMX Zea mays (Corn); 125 g ai/ha, 15 DA-A", "result": "59.8 a cm and 59.8 cm"}, {"measurement": "HEIGHT, single plots (replicates)", "setting": "ZEAMX Zea mays (Corn); 125 g ai/ha, 15 DA-A, plots 103, 206, 305", "result": "62.7 cm and 59.0 cm and 57.7 cm"}, {"measurement": "HEIGHT, percent of untreated check (APoC)", "setting": "ZEAMX Zea mays (Corn); 125 g ai/ha, 28 DA-A", "result": "(168.8%)"}, {"measurement": "HEIGHT, treatment mean", "setting": "ZEAMX Zea mays (Corn); 125 g ai/ha, 28 DA-A", "result": "85.9 a cm and 85.9 cm"}, {"measurement": "HEIGHT, single plots (replicates)", "setting": "ZEAMX Zea mays (Corn); [7]", "result": "103.0 cm and 82.0 cm and 72.7 cm"}, {"measurement": "HEIGHT, percent of untreated check (APoC)", "setting": "ZEAMX Zea mays (Corn); 250 g ai/ha, 15 DA-A", "result": "(155.4%)"}, {"measurement": "HEIGHT, treatment mean", "setting": "ZEAMX Zea mays (Corn); 250 g ai/ha, 15 DA-A", "result": "59.4 a cm and 59.4 cm"}, {"measurement": "HEIGHT, single plots (replicates)", "setting": "ZEAMX Zea mays (Corn); 250 g ai/ha, 15 DA-A, plots 104, 201, 306", "result": "56.5 cm and 61.0 cm and 60.7 cm"}, {"measurement": "HEIGHT, percent of untreated check (APoC)", "setting": "ZEAMX Zea mays (Corn); 250 g ai/ha, 28 DA-A", "result": "(208.3%)"}]}
